Reference: ChEMBL document CHEMBL1201862, “PubChem BioAssay data set” (2004)
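Where inhibition never reached the appropriate level, the endpoint shown equals the highest concentration tested. Otherwise, values were interpolated linearly from a five-concentration, 48-hour dose response in 96-well plates. GI50 marks 50% less growth.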 Calls of active or inactive are those of the source. Cut-off read from the data, not from the text of the source: active = GI50 up to about 1.1 µM and inactive = higher.

Columns and labels:
Experiment in all cases: DTP human tumour cell line panel, 48 h
[1] = system: SF-295
[2] = system: CAKI-1
[3] = system: HT-29
[4] = system: NCI-H226
[5] = system: SR
[6] = system: SNB-19
[7] = system: NCI-H23
[8] = system: SNB-75
[9] = system: MOLT-4
[10] = system: RXF 393
[11] = system: OVCAR-3
[12] = system: HCC 2998
[13] = system: SF-539
[14] = system: OVCAR-5
[15] = system: HCT-15
[16] = system: T47D
[17] = system: UO-31
[18] = system: U-251
[19] = system: HOP-62
[20] = system: ACHN
[21] = system: Malme-3M
[22] = system: UACC-257
[23] = system: EKVX
[24] = system: SK-MEL-2
[25] = system: SK-OV-3
[26] = system: CCRF-CEM
[27] = system: SK-MEL-28
[28] = system: DU-145
[29] = system: OVCAR-8
[30] = system: OVCAR-4
[31] = system: LOX IMVI
[32] = system: SK-MEL-5
[33] = system: MDA-MB-435
[34] = system: HCT-116
[35] = system: KM12
[36] = system: SN12C
[37] = system: MDA-MB-231
[38] = system: MCF7
[39] = system: 786-0
[40] = system: RPMI-8226
[41] = system: M14
[42] = system: HL-60
[43] = system: NCI/ADR-RES
[44] = system: PC-3
[45] = system: A549
[46] = system: SW-620
[47] = system: Hs-578T
[48] = system: SF-268
[49] = system: UACC-62
[50] = system: HOP-92
[51] = system: IGROV-1
[52] = system: TK-10
[53] = system: K562
[54] = system: MDA-N
[55] = system: COLO 205
[56] = system: NCI-H460
[57] = system: NCI-H522
[58] = system: A498

CC1(C)[N+]([O-])=[N+]([O-])C1(Br)c1ccccc1 (stereo unspecified)
GI50 [1]: 49.2 µM (inactive) | GI50 [2]: > 100 µM (inactive) | GI50 [3]: 39.3 µM (inactive) | GI50 [4]: > 100 µM (inactive) | GI50 [5]: 43.5 µM (inactive) | GI50 [6]: > 100 µM (inactive) | GI50 [7]: 80.9 µM (inactive) | GI50 [8]: > 100 µM (inactive) | GI50 [9]: 45.4 µM (inactive) | GI50 [10]: 25.8 µM (inactive) | GI50 [11]: 39.2 µM (inactive) | GI50 [12]: > 100 µM (inactive) | GI50 [13]: > 100 µM (inactive) | GI50 [14]: > 100 µM (inactive) | GI50 [15]: 64.6 µM | GI50 [16]: > 100 µM (inactive) | GI50 [17]: 28.8 µM (inactive) | GI50 [18]: > 100 µM (inactive) | GI50 [19]: > 100 µM (inactive) | GI50 [20]: > 100 µM (inactive) | GI50 [21]: > 100 µM (inactive) | GI50 [22]: 54.8 µM (inactive) | GI50 [23]: > 100 µM (inactive) | GI50 [24]: > 100 µM (inactive) | GI50 [25]: > 100 µM (inactive) | GI50 [26]: 39.9 µM (inactive) | GI50 [27]: > 100 µM (inactive) | GI50 [28]: 79.1 µM (inactive) | GI50 [29]: > 100 µM (inactive) | GI50 [30]: 82.2 µM (inactive) | GI50 [31]: 48.1 µM (inactive) | GI50 [32]: > 100 µM (inactive) | GI50 [33]: > 100 µM (inactive) | GI50 [34]: > 100 µM (inactive) | GI50 [35]: 89.1 µM (inactive) | GI50 [36]: > 100 µM (inactive) | GI50 [37]: 59.6 µM (inactive) | GI50 [38]: 72.9 µM (inactive) | GI50 [39]: 68.9 µM (inactive) | GI50 [40]: 42.7 µM (inactive) | GI50 [41]: > 100 µM (inactive) | GI50 [42]: 33 µM (inactive) | GI50 [43]: 43.9 µM (inactive) | GI50 [44]: > 100 µM (inactive) | GI50 [45]: > 100 µM (inactive) | GI50 [46]: > 100 µM (inactive) | GI50 [47]: > 100 µM (inactive) | GI50 [48]: 65.3 µM (inactive) | GI50 [49]: > 100 µM (inactive) | GI50 [50]: > 100 µM (inactive) | GI50 [51]: > 100 µM (inactive) | GI50 [52]: > 100 µM (inactive) | GI50 [53]: 85.7 µM (inactive) | GI50 [54]: > 100 µM (inactive) | GI50 [55]: > 100 µM (inactive) | GI50 [56]: 68.2 µM (inactive)

CC(=O)O[C@H]1C(=O)[C@@]2(C)C(C(OC(=O)c3ccccc3)[C@]3(O)CC(OC(=O)[C@H](OC(=O)CCC(=O)O)C(NC(=O)c4ccccc4)c4ccccc4)C(C)=C1C3(C)C)C1(OC(C)=O)COC1C[C@@H]2O (stereo partly specified)
GI50 [2]: 5.3 µM (inactive) | GI50 [4]: 0.0122 µM (active) | GI50 [6]: 0.0506 µM (active) | GI50 [7]: 0.0193 µM (active) | GI50 [9]: < 0.0153 µM (active) | GI50 [12]: 0.0302 µM (active) | GI50 [13]: < 0.01 µM (active) | GI50 [15]: 0.995 µM | GI50 [16]: 0.0272 µM (active) | GI50 [57]: < 0.01 µM (active) | GI50 [26]: < 0.01 µM (active) | GI50 [30]: 31.8 µM (inactive) | GI50 [31]: < 0.0105 µM (active) | GI50 [32]: < 0.0159 µM (active) | GI50 [33]: < 0.01 µM (active) | GI50 [34]: < 0.01 µM (active) | GI50 [58]: < 0.0118 µM (active) | GI50 [38]: < 0.01 µM (active) | GI50 [40]: < 0.01 µM (active) | GI50 [42]: < 0.01 µM (active) | GI50 [44]: < 0.0128 µM (active) | GI50 [45]: 0.0366 µM (active) | GI50 [47]: < 0.0175 µM (active) | GI50 [48]: 0.0252 µM (active) | GI50 [49]: < 0.0113 µM (active) | GI50 [50]: 0.656 µM (active) | GI50 [51]: < 0.0119 µM (active) | GI50 [52]: 0.136 µM (active) | GI50 [54]: < 0.01 µM (active) | GI50 [56]: < 0.0132 µM (active)
